This passage reports IC50 and dengue viremia results from US12295967B2, “Pharmaceutical composition for prevention or treatment of flavivirus infection” (priority 2018, dated 2025).

Starred links: 1 amine or outer side, 2 acyl side, 3 side chain; linkers in the order of their positions; H or OH if unused. Positions of bridges follow the written chain, without caps; N, C: chain ends. Non-standard residues stand in square brackets, D forms with d. Residues, ends and D or L forms follow the SMILES beside them. *: point of attachment. hTyr(3S-OH,4S-OH,3'-OSO3H) = N[C@H](C(=O)O)[C@H](O)[C@@H](O)c1ccc(O)c(OS(=O)(=O)O)c1; Orn(4R-OH,5R-OH) = O=C([C@H](C[C@@H](O)[C@@H](O)N[*:3])N[*:1])[*:2]; Pro(3S-OH,4S-Me) = C[C@H]1CN[C@H](C(=O)O)[C@H]1O; X1 = CCCCCOc1ccc(-c2cc(-c3ccc(C(=O)*)cc3)no2)cc1; Gln(3R-OH) = NC(=O)C[C@@H](O)[C@H](N)C(=O)O; Hyp = O=C(O)[C@@H]1C[C@@H](O)CN1

The first assay deals with T1, dengue virus RdRp (Dengue virus type 2, UniProt P29990).
T1 construct: dengue virus RdRp enzyme activity
T1 sequence (P29990 2492-3391): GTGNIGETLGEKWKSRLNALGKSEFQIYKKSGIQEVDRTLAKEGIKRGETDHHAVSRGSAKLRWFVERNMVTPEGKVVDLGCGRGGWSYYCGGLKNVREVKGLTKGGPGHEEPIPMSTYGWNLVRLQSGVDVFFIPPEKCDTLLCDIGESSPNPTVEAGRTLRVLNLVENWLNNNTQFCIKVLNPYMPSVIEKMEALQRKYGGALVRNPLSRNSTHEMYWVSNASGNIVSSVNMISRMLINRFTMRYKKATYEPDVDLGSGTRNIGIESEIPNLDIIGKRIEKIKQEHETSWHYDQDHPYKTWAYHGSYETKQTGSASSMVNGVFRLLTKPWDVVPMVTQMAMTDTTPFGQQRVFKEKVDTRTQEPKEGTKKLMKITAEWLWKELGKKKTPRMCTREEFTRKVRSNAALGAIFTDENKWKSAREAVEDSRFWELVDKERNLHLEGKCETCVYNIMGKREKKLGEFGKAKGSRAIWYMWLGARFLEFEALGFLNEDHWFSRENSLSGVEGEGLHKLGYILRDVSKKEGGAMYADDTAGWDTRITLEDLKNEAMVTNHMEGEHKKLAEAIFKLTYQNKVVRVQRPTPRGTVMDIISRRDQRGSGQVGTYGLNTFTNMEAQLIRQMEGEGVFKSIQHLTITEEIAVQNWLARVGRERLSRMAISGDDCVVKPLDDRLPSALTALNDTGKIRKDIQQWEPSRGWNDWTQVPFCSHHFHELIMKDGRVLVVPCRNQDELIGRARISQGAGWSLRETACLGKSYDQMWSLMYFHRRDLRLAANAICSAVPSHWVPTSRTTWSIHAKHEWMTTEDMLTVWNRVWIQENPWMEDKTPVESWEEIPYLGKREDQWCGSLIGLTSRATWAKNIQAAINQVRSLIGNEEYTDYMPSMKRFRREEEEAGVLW
Briefly: biochemical. Particulars: dengue virus RdRp enzyme activity; read-out: IC50, inhibitory target enzyme RdRp.
For the molecule `CN(C)Cc1ccc(S(=O)(=O)n2ccc(/C=C/C(=O)NO)c2)cc1` [Resminostat], the 50% inhibitory concentration (IC50) (usually the point on the concentration scale where inhibition reaches its midpoint) was 64.5 µM.

Consider `NC[C@@H]1O[C@H](O[C@H]2[C@@H](O)[C@H](O[C@@H]3[C@@H](O)[C@H](N)C[C@H](N)[C@H]3O[C@H]3O[C@H](CO)[C@@H](O)[C@H](O)[C@H]3N)O[C@@H]2CO)[C@H](N)[C@@H](O)[C@@H]1O` [Paromomycin], for which the IC50 is 4.5 µM.

Regarding `CN1CCN(CCCN2c3ccccc3Sc3ccc(C(F)(F)F)cc32)CC1` [Trifluoperazine], the IC50 turned out to be 22.1 µM.

As for `NCC[C@H](O)C(=O)N[C@@H]1C[C@H](N)[C@@H](O[C@H]2O[C@H](CN)[C@@H](O)[C@H](O)[C@H]2O)[C@H](O)[C@H]1O[C@H]1O[C@H](CO)[C@@H](O)[C@H](N)[C@H]1O` [Amikacin], the IC50 was 24.3 µM.

In the case of Capreomycin, the IC50 stood at 5.7 µM.

As for `CN[C@@H]1[C@H](O[C@H]2[C@H](O[C@H]3[C@H](O)[C@@H](O)[C@H](NC(=N)N)[C@@H](O)[C@@H]3NC(=N)N)O[C@@H](C)[C@]2(O)CO)O[C@@H](CO)[C@H](O)[C@H]1O` [Dihydrostreptomycin], the IC50 turned out to be 18.4 µM.

In the case of `CCN(CCO)CCCC(C)Nc1ccnc2cc(Cl)ccc12` (stereo not shown) [Hydroxychloroquine], the half-maximal inhibitory concentration (IC50) is 96 µM.

`[NH2][Pt]1([NH2])[O]CC(=O)[O]1` [Nedaplatin]: the IC50 stood at 86.4 µM.

Regarding Gentamicin Sulfate, the IC50 amounted to 2.3 µM.

In the case of `CCN[C@@H]1C[C@H](N)[C@@H](O[C@H]2OC(CN)=CC[C@H]2N)[C@H](O)[C@H]1O[C@H]1OC[C@](C)(O)[C@H](NC)[C@H]1O` [Netimicin], the IC50 amounted to 2.9 µM.

Turning to `NC[C@H]1O[C@H](O[C@H]2[C@H](O)[C@@H](O[C@H]3O[C@H](CO)[C@@H](O)[C@H](N)[C@H]3O)[C@H](N)C[C@@H]2N)[C@H](N)C[C@@H]1O` [Tobramycin], the IC50 turned out to be 3 µM.

A further assay deals with T2, dengue virus helicase (Dengue virus type 2, UniProt P29990).
T2 construct: dengue virus helicase activity
T2 sequence (P29990 1476-2093): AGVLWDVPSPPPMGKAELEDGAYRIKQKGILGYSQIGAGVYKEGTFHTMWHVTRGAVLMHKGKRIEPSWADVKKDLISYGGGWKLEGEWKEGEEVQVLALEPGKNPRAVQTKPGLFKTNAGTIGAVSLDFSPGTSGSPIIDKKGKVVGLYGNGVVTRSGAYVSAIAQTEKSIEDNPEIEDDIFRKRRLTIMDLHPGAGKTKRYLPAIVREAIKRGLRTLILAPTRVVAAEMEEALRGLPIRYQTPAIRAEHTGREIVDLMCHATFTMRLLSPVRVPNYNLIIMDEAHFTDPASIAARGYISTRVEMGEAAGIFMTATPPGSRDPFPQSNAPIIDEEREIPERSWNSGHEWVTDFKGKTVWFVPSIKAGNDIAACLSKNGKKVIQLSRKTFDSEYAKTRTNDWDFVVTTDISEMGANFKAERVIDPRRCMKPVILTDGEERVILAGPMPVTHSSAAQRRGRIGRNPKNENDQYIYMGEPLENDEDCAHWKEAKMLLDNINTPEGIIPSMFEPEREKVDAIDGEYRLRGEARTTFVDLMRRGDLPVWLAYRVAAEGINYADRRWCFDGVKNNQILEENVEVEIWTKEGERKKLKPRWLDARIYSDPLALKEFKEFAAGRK
As to the kind of experiment: Inhibition of dengue virus helicase activity.
Conditions: not given
It counts as biochemical. The text has this:
A degree of inhibition of dengue virus helicase activity depending on the concentrations of 6 compounds was confirmed (IC50 values presented, FIG. 4).
In turn, `CCCCCOc1ccc(-c2cc(-c3ccc(C(=O)N[C@H]4C[C@@H](O)[C@@H](O)NC(=O)[C@@H]5[C@@H](O)[C@@H](C)CN5C(=O)[C@H]([C@H](O)CC(N)=O)NC(=O)[C@H]([C@H](O)[C@@H](O)c5ccc(O)c(OS(=O)(=O)O)c5)NC(=O)[C@@H]5C[C@@H](O)CN5C(=O)[C@H]([C@@H](C)O)NC4=O)cc3)no2)cc1` [Micafungin] (X1-[Orn(4R-OH,5R-OH)]T[Hyp][hTyr(3S-OH,4S-OH,3'-OSO3H)][Gln(3R-OH)][Pro(3S-OH,4S-Me)]; lactam 1-C) registered an IC50 of 5 µM.

As to `CC(=O)OCC1=C(C(=O)O)N2C(=O)[C@@H](NC(=O)Cc3cccs3)[C@H]2SC1` [Cephalothin], 26 µM corresponded to half-maximal inhibition (IC50).

In the case of `O=C1Nc2ccc(Cl)cc2[C@@](C#CC2CC2)(C(F)(F)F)O1` [Efavirenz], the IC50 was 38.5 µM.

Still in this assay, the particulars now being: dengue virus helicase activity; read-out: IC50, inhibitory target enzyme Helicase.
Turning to `C[C@@H]1[C@H](O)[C@@H](C)/C=C/C=C/CC/C=C/C=C/C=C/C=C/C(O[C@H]2O[C@H](C)[C@@H](O)[C@H](N)[C@@H]2O)CC2O[C@](O)(CC(O)C(O)CCC(O)CC(O)CC(O)CC(=O)O[C@H]1C)CC(O)C2C(=O)O` (stereo partly shown) [Nystatin], the 50% inhibitory concentration (IC50) turned out to be 13.1 µM.

Consider Bleomycin, for which the IC50 was 1.4 µM.

For the molecule `CCCCCCCCCCCCCCCCOP(=O)([O-])OCC[N+](C)(C)C` [Miltefosine], the IC50 came out at 17.5 µM.

The subject of the next assay is DENV. As to the kind of experiment: DENV viremia reduction in mouse blood, dengue infection model (AG129 mouse). It counts as in vivo. Particulars: micafungin sodium IP, miltefosine oral, FIG. 5. As for the experimental part:
On day 3, blood was collected from each mouse and transferred to an EDTA coated anticoagulant tube. After shaking for 10 minutes and gently mixing, 20 μl of each sample was analyzed by whole blood count using HEMAVET 950FS (Drew Scientific). The measured value of each factor was semi-quantified relative to that of the uninfected control. Plasma was isolated by centrifugation at 8000 g and 4° C. for 15 minutes in order to analyze cytokine hyperemia and expression changes. Plasma virus titer (viremia) and viral RNA expression in whole blood were analyzed by quantitative real-time PCR (qRT-PCR).
For target gene amplification, each primer was designed taking into account overlap between two exons of the target gene having a GC content of less than 50% and an expected amplicon size of about 100 bps. For quantification of viral RNA, quantitative real time PCR (qRT-PCR) was performed. Each reaction was performed in 20 μL volume using SYBR green master mix. Quantstudio 3™ (Applied Biosystems Inc., USA) was used for the present study in two-stage amplification process. […]
Virus in plasma was calculated according to an equation of standard curve. […] For cell-based group and mouse organ samples (including whole blood), semi-quantitative viral RNA was analyzed for GAPDH as an endogenous control. […]
Regarding `CCCCCOc1ccc(-c2cc(-c3ccc(C(=O)N[C@H]4C[C@@H](O)[C@@H](O)NC(=O)[C@@H]5[C@@H](O)[C@@H](C)CN5C(=O)[C@H]([C@H](O)CC(N)=O)NC(=O)[C@H]([C@H](O)[C@@H](O)c5ccc(O)c(OS(=O)(=O)O)c5)NC(=O)[C@@H]5C[C@@H](O)CN5C(=O)[C@H]([C@@H](C)O)NC4=O)cc3)no2)cc1` [Micafungin] (X1-[Orn(4R-OH,5R-OH)]T[Hyp][hTyr(3S-OH,4S-OH,3'-OSO3H)][Gln(3R-OH)][Pro(3S-OH,4S-Me)]; lactam 1-C), the dengue viremia result was “significantly reduced”.

For the molecule `CCCCCCCCCCCCCCCCOP(=O)([O-])OCC[N+](C)(C)C` [Miltefosine], the dengue viremia result is “significantly reduced”.
